For the test, the target named is T1, FoF1-ATP synthase of cultured cells derived from human (HEK293) (Homo sapiens, UniProt P05496).
T1 construct: fractions containing cultured cell FoF1-ATP synthase obtained by the first centrifugation; endogenous in cells; host or cells: HEK293 (enzyme solubilised with GDN from the mitochondrial inner membrane and fractionated on sucrose density gradients)
Description: ATP hydrolysis activity, change in absorbance at 340 nm by NADH oxidation. In kind it is biochemical. The text has this: The FoF1-ATP synthase oligomer of the present invention has, in one embodiment, ATP synthesis activity or hydrolysis activity. These activities can be determined by methods well known to those skilled in the art. For example, ATP synthesis activity can be determined by using a luminescent reaction of the luciferin/luciferase system to determine the generated ATP. In addition, ATP hydrolysis activity can be determined based on absorbance changes at 340 nm by conjugating the hydrolysis reaction of ATP and the oxidation reaction from NADH (nicotinamide adenine dinucleotide) to NAD^+ in the presence of phosphoenolpyruvic acid, pyruvate kinase, and lactate dehydrogenase.
ATP hydrolysis activity of the fractions containing cultured cell FoF1-ATP synthase obtained by the first centrifugation under discontinuous density gradient of sucrose was determined. That is, the hydrolysis reaction of ATP with FoF1-ATP synthase was determined at 20° C. as change in absorbance at 340 nm by oxidation from NADH to NAD^+ conjugated with this reaction.
ATP hydrolysis activity of the samples contained in fraction 6-1 was determined in the same manner as described above in the presence or absence of oligomycin.
ATP hydrolysis activity of the samples collected from fraction 7 containing FoF1-ATP synthase tetramer and dimer was determined in the presence or absence of oligomycin, as in Example 1. If IF1, an endogenous inhibitory protein of mammalian ATP synthase, binds to FoF1-ATP synthase, the enzyme reaction is stopped. In order to release from FoF1-ATP synthase, samples collected from fraction 7 were mixed with 330 mM KCl and 100 mM Tris-HCl (pH 8.2). After incubation for 10 minutes at room temperature, ATP hydrolysis activity was determined. IF1 forms a dimer, binds between two FoF1-ATP synthase dimers, and stops the rotation of F1 present outside the membrane. As a result, ATP synthesis of the enzyme is stopped. Oligomycin binds to Fo of FoF1-ATP synthase and inhibits ATP synthesis.

In the case of `CC[C@H]1/C=C/C=C/C[C@@H](C)[C@H](O)[C@@](C)(O)C(=O)[C@@H](C)[C@H](O)[C@@H](C)C(=O)[C@@H](C)[C@H](O)[C@@H](C)/C=C/C(=O)O[C@@H]2[C@H](C)[C@H](CC1)O[C@]1(CC[C@H](C)[C@H](C[C@@H](C)O)O1)[C@H]2C` [oligomycin], for the setting “fraction 6-1 of first discontinuous sucrose density gradient centrifugation, HEK293, 20° C., FIG. 7”, the “ATP hydrolysis activity of the sample contained in fraction 6-1 in the presence of oligomycin” value was “inhibited”. The “ATP hydrolysis activity of the sample of fraction 7 in the presence of oligomycin” value (fraction 7 of third continuous sucrose density gradient centrifugation, HEK293, regardless of treatment to release IF1, FIG. 12) is listed as “did not exhibit ATP hydrolysis activity”.

B1: IF1: ATP synthase inhibitory factor subunit 1, an endogenous inhibitory protein of a mammalian ATP synthase (protein, UniProt Q9UII2 26-106, looked up)
ATPase inhibitor, …: GSDQSENVDRGAGSIREAGGAFGKREQAEEERYFRAQSREQLAALKKHHEEEIVHHKKEIERLQKEIERHKQKIKMLKHDD
For the molecule B1, the “Enzyme inhibition of the ATP synthase contained in fraction 7 by IF1” value (fraction 7, third centrifugation, activity compared with and without treatment to release IF1 (330 mM KCl, 100 mM Tris-HCl pH 8.2, 10 minutes), FIG. 12) is reported as “undergoes enzyme inhibition by IF1”.

These data come from patent publication US20240352430A1, “FoF1-ATP SYNTHASE OLIGOMER” (KYOTO UNIVERSITY, priority 2021, published 2024).
